These results are taken from patent US12336981B2, “Compounds and compositions for the inhibition of NAMPT” (Valo Health, Inc., priority 2010, dated 2025).

Structures are written as SMILES. Like-named read-outs stand apart in the source and are kept apart here.

Assay [1] concerns the target T1, NAMPT (Homo sapiens, UniProt P43490).
T1 construct: His tag; host or cells: E. coli
Briefly: Biochemical inhibition assay: NAMPT enzymatic reaction, NMN quantified by mass spectrometry. Particulars: read-out: Biochem IC50. In outline: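 Inhibition of E. coli-expressed His-tagged human NAMPT, measured as NMN formation by mass spectrometry after a 30 min room-temperature reaction containing 1 μM NAM, 100 μM PRPP and 2.5 mM ATP.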

The test system of assay [2] is A2780 cells. Briefly: In-vitro cell proliferation assay (SRB), A2780 cells. In kind it is cell-based. To be noted: Homo sapiens, A2780, 72 h, A2780 cells, 72 hours, read-out: A2780 IC50. A digest of the protocol:
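Proliferation is assessed by sulforhodamine B staining following a 72-hour incubation with compound dilutions containing 0.1% DMSO.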

T1 sequence (P43490 whole entry): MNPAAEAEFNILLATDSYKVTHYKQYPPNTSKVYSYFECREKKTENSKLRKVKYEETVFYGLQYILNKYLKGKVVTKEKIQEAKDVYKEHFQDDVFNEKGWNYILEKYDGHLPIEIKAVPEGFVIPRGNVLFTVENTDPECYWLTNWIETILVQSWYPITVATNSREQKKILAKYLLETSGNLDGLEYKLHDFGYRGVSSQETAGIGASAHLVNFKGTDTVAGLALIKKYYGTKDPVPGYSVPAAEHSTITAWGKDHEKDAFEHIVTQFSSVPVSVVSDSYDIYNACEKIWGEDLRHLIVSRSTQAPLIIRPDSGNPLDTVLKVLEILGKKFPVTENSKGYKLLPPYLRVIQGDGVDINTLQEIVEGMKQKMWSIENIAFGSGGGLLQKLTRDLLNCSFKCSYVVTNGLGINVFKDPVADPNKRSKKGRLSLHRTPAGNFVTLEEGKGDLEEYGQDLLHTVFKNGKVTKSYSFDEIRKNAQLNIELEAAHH

Usually IC50 stands for the point on the concentration scale where inhibition reaches its midpoint. In the case of `COc1cc(C)cc(OC)c1S(=O)(=O)c1ccc(CNC(=O)c2cc3cnccc3[nH]2)cc1` [N-({4-[(2,6-dimethoxy-4-methylbenzene)sulfonyl]phenyl}methyl)-1H-pyrrolo[3,2-c]pyridine-2-carboxamide], the half-inhibitory concentration (IC50) came to 16 nM in assay [1] (NAMPT enzymatic reaction) and 10 nM in assay [2] (SRB assay).
For `O=C(NCc1ccc(S(=O)(=O)c2ccc(F)cc2C(F)(F)F)cc1)c1cnc2[nH]ncc2c1` [N-[(4-{[4-fluoro-2-(trifluoromethyl)benzene]sulfonyl}phenyl)methyl]-1H-pyrazolo[3,4-b]pyridine-5-carboxamide], the values for the IC50 in assay [1] (NAMPT enzymatic assay) and in assay [2] (SRB) were 112 nM and 109 nM, respectively.
In the case of `O=C(NCc1ccc(S(=O)(=O)c2cccc(N3CCCCC3)c2)cc1)c1cc2cc(O)ccc2[nH]1`, the IC50 in assay [1] (NAMPT enzymatic reaction) lay within 100 to 1000 nM; in assay [2] (SRB) it was 1000 to 10000 nM.
With `COc1ccc(S(=O)(=O)c2ccc(CNC(=O)c3cc4cnccc4[nH]3)cc2)cc1OC` [N-({4-[(3,4-dimethoxybenzene)sulfonyl]phenyl}methyl)-1H-pyrrolo[3,2-c]pyridine-2-carboxamide], the IC50 in assay [1] (NAMPT enzymatic reaction) was 14 nM; in assay [2] (SRB assay), 3 nM.
As for `CCCCc1ccc(S(=O)(=O)c2ccc(CNC(=O)c3cnc4[nH]ncc4c3)cc2)cc1` [N-({4-[(4-butylbenzene)sulfonyl]phenyl}methyl)-1H-pyrazolo[3,4-b]pyridine-5-carboxamide], the IC50 in assay [1] (NAMPT enzymatic reaction) worked out at 71.2 nM; in assay [2] (SRB), 68.4 nM.
In the same order, the values of `Cc1cc(F)cc(S(=O)(=O)c2ccc(CNC(=O)c3ccc4nccn4c3)cc2)c1` [N-({4-[(3-fluoro-5-methylbenzene)sulfonyl]phenyl}methyl)imidazo[1,2-a]pyridine-6-carboxamide] are 2.7 nM and 0.6 nM.
Consider `O=C(NCc1ccc(S(=O)(=O)c2ccc(-n3cccn3)c(F)c2)cc1)c1cnc2[nH]ncc2c1`, for which the IC50 in assay [1] (NAMPT enzymatic assay) is 13.1 nM; in assay [2] (SRB), 3.3 nM.
On to `O=C(NCc1ccc(S(=O)(=O)Nc2ccccc2Oc2ccccc2)cc1)c1cc2cnccc2[nH]1` [N-({4-[(2-phenoxyphenyl)sulfamoyl]phenyl}methyl)-1H-pyrrolo[3,2-c]pyridine-2-carboxamide], for which the IC50 in assay [1] (NAMPT enzymatic reaction) came to 4020 nM; in assay [2] (SRB assay) it was 12000 nM.
As for `O=C(NCc1ccc(S(=O)(=O)c2cccc3c2OCC3)cc1)c1cc2ccncc2o1` [N-{[4-(2,3-dihydro-1-benzofuran-7-sulfonyl)phenyl]methyl}furo[2,3-c]pyridine-2-carboxamide], the IC50 in assay [1] (NAMPT enzymatic assay) turned out to be 6 nM; in assay [2] (SRB) it was 7.1 nM.
The matching figures for `O=C(NCc1ccc(S(=O)(=O)c2cccc3c2OCO3)cc1)c1cnc2nccn2c1` [N-{[4-(2H-1,3-benzodioxole-4-sulfonyl)phenyl]methyl}imidazo[1,2-a]pyrimidine-6-carboxamide]: 2.9 nM and 93.3 nM.
In the same order, the values of `O=C(NCc1ccc(S(=O)(=O)c2ccc(OC(F)(F)F)c(F)c2)cc1)c1cnc2[nH]ncc2c1` [N-[(4-{[3-fluoro-4-(trifluoromethoxy)benzene]sulfonyl}phenyl)methyl]-1H-pyrazolo[3,4-b]pyridine-5-carboxamide] are 17.4 nM and 13.7 nM.
As to `CN(C)C(=O)c1ccccc1S(=O)(=O)c1ccc(CNC(=O)c2cc3cnccc3[nH]2)cc1` [N-[(4-{[2-(dimethylcarbamoyl)benzene]sulfonyl}phenyl)methyl]-1H-pyrrolo[3,2-c]pyridine-2-carboxamide], the 50% inhibitory concentration (IC50) in assay [1] (NAMPT enzymatic assay) was 100 to 1000 nM; in assay [1] (NAMPT enzymatic reaction) it was 951 nM; in assay [2] (SRB assay), 484 nM; in assay [2] (SRB), 100 to 1000 nM.
Turning to `Cc1cc(S(=O)(=O)c2ccc(CNC(=O)c3cc4ccncc4s3)cc2)c(C)cc1F` [N-({4-[(4-fluoro-2,5-dimethylbenzene)sulfonyl]phenyl}methyl)thieno[2,3-c]pyridine-2-carboxamide], the IC50 turned out to be 4.2 nM in assay [1] (NAMPT enzymatic reaction) and 13.6 nM in assay [2] (SRB).
For `COc1cc(F)c(F)cc1S(=O)(=O)c1ccc(CNC(=O)c2cc3ccncc3s2)cc1` [N-({4-[(4,5-difluoro-2-methoxybenzene)sulfonyl]phenyl}methyl)thieno[2,3-c]pyridine-2-carboxamide], the 50% inhibitory concentration (IC50) in assay [1] (NAMPT enzymatic reaction) is 5 nM; in assay [2] (SRB assay), 2.9 nM.
Take `O=C(NCc1ccc(S(=O)(=O)c2cncc(F)c2)cc1)c1cnc2nccn2c1` [N-{[4-(5-fluoropyridine-3-sulfonyl)phenyl]methyl}imidazo[1,2-a]pyrimidine-6-carboxamide]: the IC50 stood at 6.7 nM in assay [1] (NAMPT enzymatic assay) and 56.4 nM in assay [2] (SRB).
The matching figures for `CC(C)Oc1ccc(Cl)cc1S(=O)(=O)c1ccc(CNC(=O)c2cnc3[nH]ncc3c2)cc1` [N-[(4-{[5-chloro-2-(propan-2-yloxy)benzene]sulfonyl}phenyl)methyl]-1H-pyrazolo[3,4-b]pyridine-5-carboxamide]: 67.8 nM and 27.1 nM.
The matching figures for `CC(C)Oc1cccc(S(=O)(=O)c2ccc(CNC(=O)c3cc4ccncc4o3)cc2)c1`: 12.6 nM and 14.4 nM.
As for `COc1cc(S(=O)(=O)c2ccc(CNC(=O)c3cnc4nccn4c3)cc2)ccc1C`, the IC50 in assay [1] (NAMPT enzymatic reaction) was found to be 1.3 nM; in assay [2] (SRB) it was 1.7 nM.
Take `Cc1cnc(S(=O)(=O)c2ccc(CNC(=O)c3cnc4nccn4c3)cc2)n1C` [N-{[4-(1,5-dimethyl-1H-imidazole-2-sulfonyl)phenyl]methyl}imidazo[1,2-a]pyrimidine-6-carboxamide]: the IC50 in assay [1] (NAMPT enzymatic assay) was 32.9 nM; in assay [2] (SRB), 1000 to 10000 nM.
As to `CS(=O)(=O)c1ccc(S(=O)(=O)c2ccc(CNC(=O)c3cc4cnccc4[nH]3)cc2)cc1` [N-({4-[(4-methanesulfonylbenzene)sulfonyl]phenyl}methyl)-1H-pyrrolo[3,2-c]pyridine-2-carboxamide], the values for the IC50 in assay [1] (NAMPT enzymatic reaction) and in assay [2] (SRB assay) were 24 nM and 12 nM, respectively.
Take `CCCCOc1ccc(Cl)cc1S(=O)(=O)c1ccc(CNC(=O)c2cc3cnccc3[nH]2)cc1`: the IC50 worked out at 15.6 nM in assay [1] (NAMPT enzymatic reaction) and 8.3 nM in assay [2] (SRB).
The matching figures for `COc1cc(OC)cc(S(=O)(=O)c2ccc(CNC(=O)c3cc4ccncc4s3)cc2)c1`: 1.3 nM and 0.9 nM.
Consider `O=C(NCc1ccc(S(=O)(=O)c2cccc3ccsc23)cc1)c1cnc2[nH]ncc2c1` [N-{[4-(1-benzothiophene-7-sulfonyl)phenyl]methyl}-1H-pyrazolo[3,4-b]pyridine-5-carboxamide], for which the values for the IC50 in assay [1] (NAMPT enzymatic assay) and in assay [2] (SRB) were 9.9 nM and 12.8 nM, respectively.
In the same order, the values of `O=C(NCc1ccc(S(=O)(=O)c2cccc3c2sc2ccccc23)cc1)c1cc2ccncc2s1` are 1.4 nM and 4.3 nM.
In the same order, the values of `Cc1cc(C)n(-c2cccc(S(=O)(=O)c3ccc(CNC(=O)c4cc5ccncc5s4)cc3)c2)n1` are 3.1 nM and 1.5 nM.
For the compound `COc1ccc(C(C)=O)cc1S(=O)(=O)c1ccc(CNC(=O)c2cc3ccncc3o2)cc1`, the IC50 in assay [1] (NAMPT enzymatic reaction) turned out to be 7.2 nM; in assay [2] (SRB), 3.8 nM.
The matching figures for `NS(=O)(=O)c1cccc(S(=O)(=O)c2ccc(CNC(=O)c3ccc4nccn4c3)cc2)c1`: 10.3 nM and 54.6 nM.
As for `CCN(C)c1ncc(S(=O)(=O)c2ccc(CNC(=O)c3cnc4nccn4c3)cc2)s1` [N-[(4-{2-[ethyl(methyl)amino]-1,3-thiazole-5-sulfonyl}phenyl)methyl]imidazo[1,2-a]pyrimidine-6-carboxamide], the IC50 in assay [1] (NAMPT enzymatic assay) is 1.8 nM; in assay [2] (SRB), 0.9 nM.
In the same order, the values of `Cc1nc(S(=O)(=O)c2ccc(CNC(=O)c3cc4ccncc4o3)cc2)ccc1F` [N-{[4-(5-fluoro-6-methylpyridine-2-sulfonyl)phenyl]methyl}furo[2,3-c]pyridine-2-carboxamide] are 6.2 nM and 12.4 nM.
In the same order, the values of `O=C(NCc1ccc(S(=O)(=O)c2cccc(C(F)(F)F)c2)cc1)c1ccc2ncsc2c1` are 6 nM and 548 nM.
For `CC(C)c1cccc(S(=O)(=O)c2ccc(CNC(=O)c3ccc4nccn4c3)cc2)c1` [N-[(4-{[3-(propan-2-yl)benzene]sulfonyl}phenyl)methyl]imidazo[1,2-a]pyridine-6-carboxamide], the figures for the IC50 in assay [1] (NAMPT enzymatic assay) and in assay [2] (SRB) were 12.4 nM and 3.49 nM, respectively.
In the same order, the values of `Cn1cc2cc(S(=O)(=O)c3ccc(CNC(=O)c4cc5ccncc5s4)cc3)ccc2n1` [N-{[4-(2-methyl-2H-indazole-5-sulfonyl)phenyl]methyl}thieno[2,3-c]pyridine-2-carboxamide] are 5.5 nM and 3.3 nM.
Regarding `COc1cc(Cl)cc(S(=O)(=O)c2ccc(CNC(=O)c3ccc4nccn4c3)cc2)c1`, the figures for the IC50 in assay [1] (NAMPT enzymatic reaction) and in assay [2] (SRB) were 9.2 nM and 1.5 nM, respectively.
The matching figures for `CCCCOc1ccc(S(=O)(=O)c2ccc(CNC(=O)c3cc4ccncc4o3)cc2)c(C)c1`: 16 nM and 64.8 nM.
`CCNC(=O)c1ccc(S(=O)(=O)c2ccc(CNC(=O)c3cnc4nccn4c3)cc2)cc1`: the IC50 turned out to be 22.6 nM in assay [1] (NAMPT enzymatic assay) and 87.8 nM in assay [2] (SRB).
The matching figures for `O=C(NCc1ccc(S(=O)(=O)c2cccc3ccccc23)cc1)c1cnc2nccn2c1` [N-{[4-(naphthalene-1-sulfonyl)phenyl]methyl}imidazo[1,2-a]pyrimidine-6-carboxamide]: 2.9 nM and 3.6 nM.
In the same order, the values of `CN1CCN(c2ccc(S(=O)(=O)c3ccc(CNC(=O)c4cnc5[nH]ncc5c4)cc3)cc2)CC1` are 4 nM and 1.3 nM.
In the same order, the values of `O=C(NCc1ccc(S(=O)(=O)c2cccc3c2sc2ccccc23)cc1)c1cnc2nccn2c1` are 1.8 nM and 2 nM.
For the compound `COc1c(C)cc(S(=O)(=O)c2ccc(CNC(=O)c3cc4cnccc4[nH]3)cc2)cc1C`, the IC50 worked out at 51.6 nM in assay [1] (NAMPT enzymatic reaction) and 1.7 nM in assay [2] (SRB).
